# Literature values as cited in patent US20130122091A1, “POLYDEOXYRIBONUCLEOTIDE-BASED COMPOSITIONS AND THEIR METHODS OF USE” (MEDESTEA INTERNAZIONALE SPA, priority 2010, published 2013).
# Key:
# [1] = PDRN-treated survivors, versus 2% of non-PDRN-treated survivors
substance,measurement,setting,value
polydeoxyribonucleotides [PDRNs],increase in the number of fibroblasts,fibroblasts,35%
same,increase in the production of all the dermal matrix components,fibroblasts,30%
same,Resolution of the serious hepatic veno-occlusive disease,[1],42%
